Experimental data from patent EP0981526B1, “NOVEL ANTIDIABETIC COMPOUNDS HAVING HYPOLIPIDAEMIC, ANTIHYPERTENSIVE PROPERTIES, PROCESS FOR THEIR PREPARATION AND PHARMACEUTICAL COMPOSITIONS CONTAINING THEM” (Dr. Reddy's Laboratories Ltd., priority 1997, dated 1997).

Tested on: C57BL/KsJ-db/db mice
Assay: Blood sugar and triglycerides lowering activity in db/db mice (in vivo)
Conditions: for Reduction in Blood Glucose Level (%) / Triglyceride Lowering (%): oral gavage daily, male db/db mice; for Reduction in Blood Glucose Level (%): plasma glucose; for Triglyceride Lowering (%): plasma triglyceride
Excerpt: Mutation in colonies of laboratory animals and different sensitivities to dietary regimens have made the development of animal models with non-insulin dependent diabetes associated with obesity and insulin resistance possible. Genetic models such as db/db and ob/ob (See Diabetes. (1982) 31(1): 1-6) in mice and fa/fa and zucker rats have been developed by the various laboratories for understanding the pathophysiology of disease and testing the efficacy of new antidiabetic compounds (Diabetes, (1983)32: 830-838; Annu. Rep. Sankyo Res. Lab. (1994). 46: 1-57). The homozygous animals, C57 BL/KsJ-db/db mice developed by Jackson Laboratory, US, are obese, hyperglycemic, hyperinsulinemic and insulin resistant (J. Clin. Invest., (1990) 85: 962-967), whereas heterozygous are lean and normoglycemic. In db/db model mouse progressively develops insulinopenia with age, a feature commonly observed in late stages of human type II diabetes when blood sugar levels are insufficiently controlled. The state of pancreas and its course vary according to the models. Since this model resembles that of type II diabetes mellitus, the compounds of the present invention were tested for blood sugar and triglycerides lowering activities.
Male C57BL/KsJ-db/db mice of 8 to 14 weeks age, having body weight range of 35 to 60 grams, procured from the Jackson Laboratory, USA, were used in the experiment. The mice were provided with standard feed (National Institute of Nutrition, Hyderabad, India) and acidified water, ad libitum. The animals having more than 300 mg/dl blood sugar were used for testing. The number of animals in each group was 4.
The random blood sugar ad triglyceride levels were measured by collecting blood (100 µl) through orbital sinus, using heparinized capillary in tubes containing EDTA which was centrifuged to obtain plasma. The plasma glucose and triglyceride levels were measured through spectrometrically, by glucose oxidase and glycerol-3-PO4 oxidase/peroxidase enzyme (Dr. Reddy's Lab. Diagnostic Division Kits, Hyderabad, India) methods respectively. On 6th day the blood samples were collected one hour after administration of test compounds/vehicle for assessing the biological activity.
Test compounds were suspended on 0.25 % carboxymethyl cellulose and administered to test group at a dose of 30 mg to 200 mg/kg through oral gavage daily for 6 to 9 days. The control group received vehicle (dose 10 ml/kg).
The blood sugar and triglycerides lowering activities of the test compound was calculated according to the formula: Blood sugar / triglycerides lowering activity (%) = 1 -(DT/DC)/(TC/ZC)X 100 [formula] • ZC = Zero day control group value • DC = Zero day treated group value • TC = Control group value on test day • DT = Treated group value on the test day

[1] = dose 200 mg/kg, treated for nine days

SMILES	Reduction in Blood Glucose Level (%) (dose 30 mg/kg)	Reduction in Blood Glucose Level (%) (dose 100 mg/kg)	Triglyceride Lowering (%) (dose 100 mg/kg)	Triglyceride Lowering (%) (dose 30 mg/kg)	also measured
Cc1c(C)c2c(c(C)c1O)CCC(C)(COc1ccc(CC3SC(=O)NC3=O)cc1)O2 (stereo not drawn) [Troglitazone, reference compound]	–	–	–	–	reduction in random blood sugar level (100 mg/kg, daily dose, on 6th day, standard drug, db/db mice): 28%
O=C1NC(=O)C(=Cc2ccc(OC3CCN(C(=O)OCc4ccccc4)CC3)cc2)S1 [Example 1, 5-[4-[1(Benzyloxycarbonyl)piperidin-4-yloxy]phenylmethylene]thiazolidine-2,4-dione]	47	59	29	–	Reduction in Blood Glucose Level (%) [1]: 62%; Triglyceride Lowering (%) [1]: 70%
O=C1NC(=O)C(=Cc2ccc(OC3CCN(C(=O)NCc4ccccc4)CC3)cc2)S1 [Example 10, 5-[4-[1-(Benzylaminocarbonyl)piperidin-4-yloxy]phenylmethylene]thiazolidine-2,4-dione]	37	–	–	6	–
O=C1NC(=O)C(=Cc2ccc(OC[C@@H]3CCCN3C(=O)OCc3ccccc3)cc2)S1 [Example 5, 5-[4-[1-(Benzyloxycarbonyl)-(2S)-pyrrolidin-2-ylmethoxy]phenylmethylene]thiazolidine-2,4-dione]	30	–	–	5	–
O=C1NC(=O)C(=Cc2ccc(OCC3CCN(C(=O)OCc4ccccc4)CC3)cc2)S1 [Example 3, 5-[4-[1-(Benzyloxycarbonyl)piperidin-4-ylmethoxy]phenylmethylene] thiazolidine-2,4-dione]	–	35	56	–	–
